Results as given in patent US20250179047A1, “5-[7-(3,4-DIHYDRO-1H-ISOQUINOLINE-2-CARBONYL)-1,2,3,4 TETRAHYDROISOQUINOLIN-6-YL]-1H-PYRROLE-3-CARBOXAMIDE DERIVATIVES, PHARMACEUTICAL COMPOSITIONS CONTAINING THEM AND THEIR USES AS PRO-APOPTOTIC AGENTS” (LES LABORATOIRES SERVIER, priority 2022, published 2025).

Assays:
BCL2 WT = BCL2 WT (Homo sapiens (Human), UniProt P10415); assay: TR-FRET competitive binding assay, BCL2 WT; details: Ki determined from IC50, read-out: TR_FRET EKI_Bcl2 WT
Procedure, shortened: (§1)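 Terbium-labelled N-terminal Halo-fusion BCL2 or BCLXL (E. coli), 0.5 nM, competed against fluorescein-labelled PUMA peptide (2 or 20 nM) for 2 h at 23° C in 50 mM Hepes pH 7.5, 150 mM NaCl, 5% DMSO. TR-FRET 520/495 nm ratio gave IC50 by four-parameter fit; Ki derived from IC50.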

BCL2 G101V [1] = target: BCL2 G101V (Homo sapiens, UniProt P10415, G101V); assay: TR-FRET competitive binding assay, BCL2 G101V; details: BCL2 G101V; Ki determined from IC50; read-out: TR_FRET EKI_Bcl2 G101V
Procedure, shortened: as §1

BCL2 G101V [2] = assay: TR-FRET competitive binding assay, BCL2 G101V; design: species or system human; details: ratio Ki BCL2 G101V / Ki BCL2 WT
Procedure, shortened: as §1

BCL2 D103Y = BCL2 D103Y (Homo sapiens, UniProt P10415, D103Y); assay: TR-FRET competitive binding assay, BCL2 D103Y; details: Ki determined from IC50, read-out: TR_FRET EKI_Bcl2 D103Y
Procedure, shortened: as §1

BCL2 F104I = BCL2 F104I (Homo sapiens, UniProt P10415, F104I); assay: TR-FRET competitive binding assay, BCL2 F104I; details: Ki determined from IC50, read-out: TR_FRET EKI_Bcl2 F104I
Procedure, shortened: as §1

BCL2 D111A = BCL2 D111A (Homo sapiens, UniProt P10415, D111A); assay: TR-FRET competitive binding assay, BCL2 D111A; details: Ki determined from IC50, read-out: TR_FRET EKI_Bcl2 D111A
Procedure, shortened: as §1

BCLXL WT = BCLXL WT (Homo sapiens (Human), UniProt Q07817); assay: TR-FRET competitive binding assay, BCLXL WT; details: for Ki: BCLXL WT, Ki determined from IC50, read-out: TR_FRET EKI BclxL; for TR_FRET EKI BCLxL/WT selectivty ratio: ratio Ki BCLxL / Ki BCL2 WT
Sequence of BCLXL WT (Q07817 other isoform, or with tags, fused parts or gaps): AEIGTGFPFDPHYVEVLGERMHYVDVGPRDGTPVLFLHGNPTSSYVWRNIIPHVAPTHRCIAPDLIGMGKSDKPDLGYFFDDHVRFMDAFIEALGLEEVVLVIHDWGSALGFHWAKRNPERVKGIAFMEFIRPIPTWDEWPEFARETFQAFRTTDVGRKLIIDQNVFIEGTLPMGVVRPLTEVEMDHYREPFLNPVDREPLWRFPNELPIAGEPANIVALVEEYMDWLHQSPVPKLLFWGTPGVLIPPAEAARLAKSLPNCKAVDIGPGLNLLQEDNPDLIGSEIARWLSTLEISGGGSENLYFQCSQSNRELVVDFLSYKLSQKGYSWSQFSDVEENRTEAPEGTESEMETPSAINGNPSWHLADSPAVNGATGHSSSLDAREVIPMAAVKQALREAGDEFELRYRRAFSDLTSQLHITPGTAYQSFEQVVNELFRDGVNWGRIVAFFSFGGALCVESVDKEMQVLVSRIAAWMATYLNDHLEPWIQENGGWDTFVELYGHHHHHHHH
Procedure, shortened: as §1

KMS-12-PE Bcl-2 WT = assay: In vitro cytotoxicity CellTiter-Glo 48 h, KMS-12-PE Bcl-2 WT; assay type: cell-based; details: C50 = concentration needed to reach 50% of the cellular viability
Procedure, shortened: (§2)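 KMS-12-PE myeloma cells were lentivirally transduced with wild-type or G101V-mutant Bcl-2 and sorted by TagRFP. They were exposed to compounds as 11-point dose responses for 48 h at 37 °C, 5% CO2. Viability was read by CellTiter-Glo ATP luminescence, and C50 was the concentration giving 50% viability.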

KMS-12-PE Bcl-2 G101V = assay: In vitro cytotoxicity CellTiter-Glo 48 h, KMS-12-PE Bcl-2 G101V; assay type: cell-based; details: for Ratio (G101V/WT): C50 KMS-12-PE Bcl-2 G101V over C50 KMS-12-PE Bcl-2 WT; for IC50: CellTiter-Glo, 48 h, C50 = concentration needed to reach 50% of the cellular viability
Procedure, shortened: as §2

CYP3A4 = CYP3A4 (Homo sapiens (Human), UniProt P08684); assay: CYP3A4 inhibition determination in hepatic human microsomes; assay type: in vitro ADME; details: LC/MS-MS of specific metabolite
Sequence of CYP3A4 (P08684 whole entry): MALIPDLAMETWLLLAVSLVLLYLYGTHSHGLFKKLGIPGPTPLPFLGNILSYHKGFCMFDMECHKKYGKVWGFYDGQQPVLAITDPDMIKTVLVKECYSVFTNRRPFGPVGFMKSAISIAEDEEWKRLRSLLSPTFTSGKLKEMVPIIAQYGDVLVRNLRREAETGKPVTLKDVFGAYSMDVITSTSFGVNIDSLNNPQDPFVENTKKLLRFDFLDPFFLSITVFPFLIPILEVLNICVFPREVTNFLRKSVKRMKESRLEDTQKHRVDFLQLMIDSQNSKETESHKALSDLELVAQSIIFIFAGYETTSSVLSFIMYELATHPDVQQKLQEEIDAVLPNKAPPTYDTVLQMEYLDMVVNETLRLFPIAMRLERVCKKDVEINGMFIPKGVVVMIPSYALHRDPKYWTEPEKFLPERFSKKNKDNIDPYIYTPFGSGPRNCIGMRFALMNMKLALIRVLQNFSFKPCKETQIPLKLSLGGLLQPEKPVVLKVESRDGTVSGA
Procedure: The inhibitory potential was determined on CYP3 Å4 enzyme using hepatic human microsomes. A range of concentrations (adapted based on the solubility) of the tested compound were incubated in presence of a substrate having a specific metabolite of CYP3 Å4 enzyme.
Then, the formation of the metabolite was quantified using LC/MS-MS analysis and a curve corresponding to the concentration of the metabolite in function of the concentration of the test compound allowed to the calculation of the IC50 value.

| Ki (BCL2 WT) | Ki (BCL2 G101V [1]) | TR_FRET EKI G101V/WT selectivty ratio (BCL2 G101V [2]) | Ki (BCL2 D103Y) | Ki (BCL2 F104I) | Ki (BCL2 D111A) | Ki (BCLXL WT) | TR_FRET EKI BCLxL/WT selectivty ratio (BCLXL WT) | IC50 (CYP3A4) | Compound | IC50 (KMS-12-PE Bcl-2 WT) | Ratio (G101V/WT) (KMS-12-PE Bcl-2 G101V) | IC50 (KMS-12-PE Bcl-2 G101V) | IC50 (KMS-12-PE Bcl-2 WT; Homo sapiens, KMS-12-PE) | IC50 (KMS-12-PE Bcl-2 G101V; Homo sapiens, KMS-12-PE) |
| --- | --- | --- | --- | --- | --- | --- | --- | --- | --- | --- | --- | --- | --- | --- |
| 0.04 nM | 0.2 nM | 5.5 | 0.15 nM | 0.25 nM | 0.12 nM | 3.9 nM | 90.7 | > 5000 nM | Cc1c(N(C(=O)c2cc(-c3cc4c(cc3C(=O)N3Cc5ccccc5C[C@H]3CN3CCCCC3)CN(C(=O)Cc3ccc(OCCN5CCOC(C)C5)cc3F)CC4)n(C)c2C)c2ccc(O)cc2)cc(C#N)n1C (single isomer, unassigned) [Example 109, N-(5-cyano-1,2-dimethyl-1H-pyrrol-3-yl)-5-[2-(2-{2-fluoro-4-[2-((2R or S)-2-methylmorpholin-4-yl)ethoxy]phenyl}acetyl)-7-[(3S)-3-[(piperidin-1-yl)methyl]-1,2,3,4-tetrahydroisoquinoline-2-carbonyl]-1,2,3,4-tetrahydroisoquinolin-6-yl]-N-(4-hydroxyphenyl)-1,2-dimethyl-1H-pyrrole-3-carboxamide] | 0.0048 µM | 4.38 | 0.022 µM |  |  |
| 0.04 nM | 0.2 nM | 6.3 | 0.16 nM | 0.23 nM | 0.09 nM | 2.6 nM | 68.4 | > 5000 nM | Cc1c(N(C(=O)c2cc(-c3cc4c(cc3C(=O)N3Cc5ccccc5C[C@H]3CN3CCCCC3)CN(C(=O)Cc3ccc(OCCN5CCOCC5)cc3)CC4)n(C)c2C)c2ccc(O)cc2)cc(C#N)n1C [Example 67, N-(5-cyano-1,2-dimethylpyrrol-3-yl)-N-(4-hydroxyphenyl)-1,2-dimethyl-5-[2-(2-{4-[2-(morpholin-4-yl)ethoxy]phenyl}acetyl)-7-{[(3S)-3-(piperidin-1-ylmethyl)-3,4-dihydro-1H-isoquinolin-2-yl]carbonyl}-3,4-dihydro-1H-isoquinolin-6-yl]pyrrole-3-carboxamide] |  | 5.2 |  | 0.0113 µM | 0.0562 µM |
| 0.04 nM | 0.3 nM | 6.8 | 0.17 nM | 0.25 nM | 0.08 nM | 2.4 nM | 60.0 | 18000 nM | Cc1c(N(C(=O)c2cc(-c3cc4c(cc3C(=O)N3Cc5ccccc5C[C@H]3CN(C)C(C)C)CN(C(=O)Cc3ccc(OCCN5CCOCC5)cc3F)CC4)n(C)c2C)c2ccc(O)cc2)cc(C#N)n1C [Example 91, N-(5-cyano-1,2-dimethyl-1H-pyrrol-3-yl)-5-[2-(2-{2-fluoro-4-[2-(morpholin-4-yl)ethoxy]phenyl}acetyl)-7-[(3S)-3-{[methyl(propan-2-yl)amino]methyl}-1,2,3,4-tetrahydroisoquinoline-2-carbonyl]-1,2,3,4-tetrahydroisoquinolin-6-yl]-N-(4-hydroxyphenyl)-1,2-dimethyl-1H-pyrrole-3-carboxamide] |  | 5.96 |  | 0.0084 µM | 0.0498 µM |
| 0.04 nM | 0.3 nM | 6.3 | 0.11 nM | 0.15 nM | 0.09 nM | 4.1 nM | 102.5 | > 5000 nM | Cc1c(C(=O)N(c2ccc(O)cc2)c2cc(C#N)n(C(F)F)c2C)cc(-c2cc3c(cc2C(=O)N2Cc4ccccc4C[C@H]2CN2CCCC2)CN(C(=O)Cc2ccc(OCCN4CCOCC4)cc2F)CC3)n1C [Example 110] |  | 5.02 |  | 0.0102 µM | 0.0512 µM |
